These results are taken from patent US20240246946A1, “MODULATORS OF TREX1” (Constellation Pharmaceuticals, Inc., priority 2021, published 2024).

One may read the pIC50 as the IC50 on a negative log10 scale, so that one unit is a factor of ten.

The target of experiment [1] is T1, full length human TREX1 (Homo sapiens, UniProt Q9NSU2).
T1 construct: N-terminally His-Tev tagged full length human TREX1; made in house; host or cells: E. coli
T1 sequence (Q9NSU2 1-314): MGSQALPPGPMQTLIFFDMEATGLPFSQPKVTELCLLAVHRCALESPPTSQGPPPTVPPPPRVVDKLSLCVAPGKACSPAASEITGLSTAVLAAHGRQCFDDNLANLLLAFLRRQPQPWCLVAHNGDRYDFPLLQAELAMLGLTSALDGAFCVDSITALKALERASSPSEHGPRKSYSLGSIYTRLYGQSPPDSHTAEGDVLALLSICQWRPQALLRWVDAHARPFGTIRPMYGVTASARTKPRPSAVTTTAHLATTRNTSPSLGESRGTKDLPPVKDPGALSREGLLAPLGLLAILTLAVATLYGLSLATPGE
The experiment is described as follows: hTREX1 Biochemical Assay (fluorescence, dsDNA substrate degradation). The settings on record: biochemical, read-out: hTREX1 IC50. A digest of the protocol: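 Cleavage of 60 nM TEX615/quencher-labelled dsDNA in pH 7.4 Tris buffer with 5 mM MgCl2, 1.0% DMSO, run 18 hours at 25° C, EDTA-quenched; fluorescence read-out.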

The target of experiment [2] is T2, full length mouse TREX1 (Mus musculus, UniProt Q91XB0).
T2 construct: N-terminally His-Tev tagged full length mouse TREX1; made in house; host or cells: E. coli
T2 sequence (Q91XB0 1-314): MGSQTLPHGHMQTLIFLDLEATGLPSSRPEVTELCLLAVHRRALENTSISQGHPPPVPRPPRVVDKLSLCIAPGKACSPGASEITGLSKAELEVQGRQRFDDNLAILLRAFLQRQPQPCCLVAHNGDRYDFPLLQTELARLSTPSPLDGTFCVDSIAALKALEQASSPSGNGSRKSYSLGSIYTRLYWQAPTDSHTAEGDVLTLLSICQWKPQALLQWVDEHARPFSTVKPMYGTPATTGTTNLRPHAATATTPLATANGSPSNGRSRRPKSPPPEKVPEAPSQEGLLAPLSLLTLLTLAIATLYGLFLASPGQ
The experiment is described as follows: mTREX1 Biochemical Assay (fluorescence, dsDNA substrate degradation). The conditions noted are these: biochemical, read-out: mTREX1 IC50. Put shortly:
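Reaction run 18 h at 25° C. with 60 nM TEX615/quencher-labelled dsDNA and 6 pM mouse TREX1 in Tris buffer (pH 7.4, 5 mM MgCl2, 1.0% DMSO), enzyme having sat 4 h with compound across 10 concentrations. EDTA quench; substrate degradation measured as fluorescence increase.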

In experiment [3] the target is T3, human TREX2 (residues M44-A279) (Homo sapiens, UniProt Q9BQ50).
T3 construct: human TREX2 (residues M44-A279, expressed in E. coli); made in house; host or cells: E. coli
T3 sequence (Q9BQ50 44-279 isoform Q9BQ50-1): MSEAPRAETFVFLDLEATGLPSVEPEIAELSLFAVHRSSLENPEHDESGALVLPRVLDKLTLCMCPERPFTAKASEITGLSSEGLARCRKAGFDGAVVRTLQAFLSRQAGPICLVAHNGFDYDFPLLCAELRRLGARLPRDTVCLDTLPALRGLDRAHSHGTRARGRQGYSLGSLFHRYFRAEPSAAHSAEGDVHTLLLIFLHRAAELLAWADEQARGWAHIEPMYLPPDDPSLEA
The experiment is described as follows: hTREX2 Biochemical Assay (fluorescence, dsDNA substrate degradation). The settings on record: biochemical selectivity for hTREX1 vs hTREX2. A digest of the protocol:
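N-His-Tev E. coli enzyme (50 pM) pre-incubated with compound 4 h at 25 °C, then 60 nM TEX615/quencher dsDNA added; 18 h at 25 °C, pH 7.4 Tris buffer with 5 mM MgCl2, 1.0% DMSO. EDTA-quenched; fluorescence 570 ex/615 em from liberated fluorophore, 10-point dose-response.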

For experiment [4], the target named is T4, hTREX1 (Homo sapiens, UniProt Q9NSU2).
T4 construct: host or cells: HCT116 dual cells
T4 sequence (Q9NSU2 1-314): T1 sequence (Q9NSU2 1-314)
Briefly: hTREX1 HCT116 Cell Assay (HCT116 dual cells, Lucia luciferase reporter of Type I interferon induction). It counts as cell-based. The settings on record: TREX1i 4 h before pBR322/BstNI transfection, read after 48 h. Put shortly: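 HCT116 dual cells carrying an ISRE-type STAT1/STAT2-driven secreted Lucia luciferase reporter were pretreated with TREX1 inhibitor for 4 h (≤0.1% DMSO), then transfected with pBR322/BstNI DNA (100 ng/well, Lipofectamine LTX). Luciferase in medium read after 48 h at 37 °C.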
(In general: In a reporter assay the amount or activity of a reporter protein is the signal.)

pIC50: −log10 of the molar value.

On to `COCCn1ncc(C(c2cc(F)ccc2Cl)C(C)c2nc(C(=O)Nc3cnoc3)c(O)c(=O)n2C)c1C` (single isomer, unassigned) [Example 108 D1E1], for which the values for the pIC50 in experiment [1], in experiment [2] and in experiment [4] were 8.00 to 9.00, less than 8.00 and less than 7.00, respectively. In experiment [3], the “hTREX1 vs hTREX2 selectivity” value is reported as “A (A = <25 fold selective for hTREX1)”.

As for `COCCn1ncc(C(c2cc(F)ccc2Cl)C(C)c2nc(C(=O)Nc3cnoc3)c(O)c(=O)n2C)c1C` (single isomer, unassigned) [Example 108 D2E1], the pIC50 was 8.00 to 9.00 in experiment [1], less than 8.00 in experiment [2] and 7.00 to 8.00 in experiment [4]. Further, the “hTREX1 vs hTREX2 selectivity” value in experiment [3] was “A (A = <25 fold selective for hTREX1)”.

With `Cc1nn(C)c(C)c1C(c1cc(F)ccc1C#N)C(C)c1nc(C(=O)Nc2cnoc2)c(O)c(=O)n1C` (single isomer, unassigned) [Example 109 D1E1], the values for the pIC50 in experiment [1], in experiment [2] and in experiment [4] were greater than 9.00, 8.00 to 9.00 and 7.00 to 8.00, respectively. In experiment [3], the “hTREX1 vs hTREX2 selectivity” value is recorded as “B (B = 25 to 50-fold selective for hTREX1)”.

As for `COCCn1nc(C)c(C(c2cc(F)ccc2C#N)C(C)c2nc(C(=O)Nc3cnoc3)c(O)c(=O)n2C)c1C` (single isomer, unassigned) [Example 110 D1E1], the figures for the pIC50 in experiment [1], in experiment [2] and in experiment [4] were greater than 9.00, 8.00 to 9.00 and less than 7.00, respectively. Besides, in experiment [3], the “hTREX1 vs hTREX2 selectivity” value is listed as “C (C = >50 fold selective for hTREX1)”.

Consider `Cc1cc(C(c2cc(F)ccc2C#N)C(C)c2nc(C(=O)Nc3cnoc3)c(O)c(=O)n2C)n(C)n1` (single isomer, unassigned) [Example 111 D2E1], for which the pIC50 was greater than 9.00 in experiment [1], less than 8.00 in experiment [2] and less than 7.00 in experiment [4]. Also, the “hTREX1 vs hTREX2 selectivity” value in experiment [3] is “C (C = >50 fold selective for hTREX1)”.

Consider `Cc1cc(C(c2cc(F)ccc2C#N)C(C)c2nc(C(=O)Nc3cnoc3)c(O)c(=O)n2C)nn1C` (single isomer, unassigned) [Example 112 D1E1], for which the pIC50 in experiment [1] was greater than 9.00; in experiment [2], 8.00 to 9.00; in experiment [4], 7.00 to 8.00. In addition, the “hTREX1 vs hTREX2 selectivity” value in experiment [3] is on record as “C (C = >50 fold selective for hTREX1)”.

For `Cc1cc(C(c2cc(F)ccc2C#N)C(C)c2nc(C(=O)Nc3cnoc3)c(O)c(=O)n2C)nn1C` (single isomer, unassigned) [Example 112 D2E1], the results for the pIC50 in experiment [1], in experiment [2] and in experiment [4] were 8.00 to 9.00, less than 8.00 and less than 7.00, respectively. Moreover, in experiment [3], the “hTREX1 vs hTREX2 selectivity” value is listed as “A (A = <25 fold selective for hTREX1)”.

On to `Cc1cc(C(c2cc(F)ccc2Cl)C(C)c2nc(C(=O)Nc3cnoc3)c(O)c(=O)n2C)n(C)n1` (single isomer, unassigned) [Example 113 D1E1], for which the pIC50 in experiment [1] was less than 8.00; in experiment [2], less than 8.00; in experiment [4] it was 7.00 to 8.00. In addition, the “hTREX1 vs hTREX2 selectivity” value in experiment [3] was “C (C = >50 fold selective for hTREX1)”.

With `Cc1cnc(C(c2cc(F)ccc2C#N)C(C)c2nc(C(=O)Nc3cnoc3)c(O)c(=O)n2C)cn1` (single isomer, unassigned) [Example 115 D2E2], the pIC50 in experiment [1] was 8.00 to 9.00; in experiment [2] it was less than 8.00; in experiment [4], less than 7.00. For the same compound, the “hTREX1 vs hTREX2 selectivity” value in experiment [3] is “C (C = >50 fold selective for hTREX1)”.

With `Cc1cnc(C(c2ccccc2Cl)C(C)c2nc(C(=O)Nc3cnoc3)c(O)c(=O)n2C)cn1` (single isomer, unassigned) [Example 116 D1E1], the pIC50 in experiment [1] was less than 8.00; in experiment [2] it was less than 8.00; in experiment [4], less than 7.00. In addition, the “hTREX1 vs hTREX2 selectivity” value in experiment [3] is “A (A = <25 fold selective for hTREX1)”.

For the compound `Cc1cnc(C(c2ccccc2Cl)C(C)c2nc(C(=O)Nc3cnoc3)c(O)c(=O)n2C)cn1` (single isomer, unassigned) [Example 116 D1E2], the results for the pIC50 in experiment [1], in experiment [2] and in experiment [4] were greater than 9.00, 8.00 to 9.00 and 7.00 to 8.00, respectively. Also, the “hTREX1 vs hTREX2 selectivity” value in experiment [3] is “B (B = 25 to 50-fold selective for hTREX1)”.

Take `Cc1cnc(C(c2ccccc2Cl)C(C)c2nc(C(=O)Nc3cnoc3)c(O)c(=O)n2C)cn1` (single isomer, unassigned) [Example 116 D2E1]: the pIC50 in experiment [1] was 8.00 to 9.00; in experiment [2], less than 8.00; in experiment [4], less than 7.00. The “hTREX1 vs hTREX2 selectivity” value in experiment [3] is “A (A = <25 fold selective for hTREX1)”.

`Cc1cnc(C(c2cc(F)ccc2Cl)C(C)c2nc(C(=O)Nc3cnoc3)c(O)c(=O)n2C)cn1` (single isomer, unassigned) [Example 117 D1E2]: the pIC50 is greater than 9.00 in experiment [1], 8.00 to 9.00 in experiment [2] and greater than 8.00 in experiment [4]. Besides, the “hTREX1 vs hTREX2 selectivity” value in experiment [3] was “A (A = <25 fold selective for hTREX1)”.

`Cc1cnc(C(c2cc(F)ccc2Cl)C(C)c2nc(C(=O)Nc3cnoc3)c(O)c(=O)n2C)cn1` (single isomer, unassigned) [Example 117 D2E1]: the pIC50 is 8.00 to 9.00 in experiment [1], less than 8.00 in experiment [2] and less than 7.00 in experiment [4]. Also, the “hTREX1 vs hTREX2 selectivity” value in experiment [3] is “A (A = <25 fold selective for hTREX1)”.

`CC(c1nc(C(=O)Nc2cnoc2)c(O)c(=O)n1C)C(c1cnc(C(F)(F)F)cn1)c1ccccc1C#N` (single isomer, unassigned) [Example 118 D1E1]: the pIC50 in experiment [1] is 8.00 to 9.00; in experiment [2], 8.00 to 9.00; in experiment [4], 7.00 to 8.00. For the same compound, in experiment [3], the “hTREX1 vs hTREX2 selectivity” value is listed as “B (B = 25 to 50-fold selective for hTREX1)”.

In the case of `CC(c1nc(C(=O)Nc2cnoc2)c(O)c(=O)n1C)C(c1cnc(C(F)(F)F)cn1)c1ccccc1C#N` (single isomer, unassigned) [Example 118 D2E1], the pIC50 is 8.00 to 9.00 in experiment [1], less than 8.00 in experiment [2] and less than 7.00 in experiment [4]. In experiment [3], the “hTREX1 vs hTREX2 selectivity” value is on record as “B (B = 25 to 50-fold selective for hTREX1)”.

As to `Cc1cnc(C)c(C(c2cc(F)ccc2C#N)C(C)c2nc(C(=O)Nc3cnoc3)c(O)c(=O)n2C)n1` (single isomer, unassigned) [Example 119 D1E2], the pIC50 is less than 8.00 in experiment [1], less than 8.00 in experiment [2] and less than 7.00 in experiment [4]. Also, the “hTREX1 vs hTREX2 selectivity” value in experiment [3] is on record as “B (B = 25 to 50-fold selective for hTREX1)”.

Regarding `Cc1cnc(C)c(C(c2cc(F)ccc2C#N)C(C)c2nc(C(=O)Nc3cnoc3)c(O)c(=O)n2C)n1` (single isomer, unassigned) [Example 119 D2E1], the pIC50 in experiment [1] is 8.00 to 9.00; in experiment [2], less than 8.00; in experiment [4], less than 7.00. Further, the “hTREX1 vs hTREX2 selectivity” value in experiment [3] is reported as “C (C = >50 fold selective for hTREX1)”.

On to `Cc1cnc(C)c(C(c2cc(F)ccc2C#N)C(C)c2nc(C(=O)Nc3cnoc3)c(O)c(=O)n2C)n1` (single isomer, unassigned) [Example 119 D2E2], for which the pIC50 in experiment [1] was less than 8.00; in experiment [2] it was less than 8.00; in experiment [4] it was less than 7.00. For the same compound, in experiment [3], the “hTREX1 vs hTREX2 selectivity” value is “A (A = <25 fold selective for hTREX1)”.

On to `Cc1cnc(C)c(C(c2ccccc2Cl)C(C)c2nc(C(=O)Nc3cnoc3)c(O)c(=O)n2C)n1` (single isomer, unassigned) [Example 120 D1E1], for which the pIC50 in experiment [1] is greater than 9.00; in experiment [2], 8.00 to 9.00; in experiment [4] it was greater than 8.00. Besides, the “hTREX1 vs hTREX2 selectivity” value in experiment [3] is reported as “C (C = >50 fold selective for hTREX1)”.
